≈ marks a conversion by molar mass, not a printed value. Where “and” joins values, the source holds several entries; their conditions need not be identical. Equal values may be shown once. Read-outs that look alike come from different tables or passages of the source.
What was measured:
Type in all cases: cell-based
Malassezia pachydermatis [1] = assay: MIC, mSAB broth microdilution (Example 1); details: for activity against all 13 isolates of Malassezia pachydermatis: summary in words
Description: There is no recommended Clinical & Laboratory Standards Institute (CLSI) standard for M. pachydermatis. In the literature there are a number of papers which have developed Minimum Inhibitory Concentration (MIC) methodology for Malassezia species isolated from both humans and animals (ie both lipophilic and non-lipophilic species). In all papers, the methodology has been altered from the original CLSI protocols in order to overcome four main problem areas involved in testing this yeast. • 1) Finding a suitable growth medium for Malassezia, especially the lipophilic species. […] When testing the azole group of anti-fungal agents, there is also the well known trailing end point problem with MIC determination. Trailing occurs when the turbidity continually decreases as the drug concentration increases but the suspension fails to become optically clear (partial inhibition of growth over an extended range of antifungal concentrations). The following method was originally developed by Eichenberg et al. (2003) (mSAB broth microdilution method). The mSAB method was devised to follow as closely as possible the CLSI guidelines whilst still allowing for the distinct biochemical and growth requirements of M. pachydermatis. Sabouraud dextrose broth with 1% Tween 80 was chosen as the assay medium as it allowed for excellent growth of the organism. Higher inoculum concentrations (1-4×10^6 CFU/ml) and increased time of incubation (48 to 72 hours) were used to enable sufficient growth of the test strains.

Candida albicans [2] = assay: CLSI broth microdilution MIC (Example 6)
Outline: (§1)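 CLSI broth microdilution in RPMI 1640, compounds serially double-diluted, inoculum about 2×10^3 cells/mL. Incubation at 35° C for 24-48 hours. MICs determined per isolate in duplicate, with a third repeat if values differed.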

Cryptococcus neoformans = assay: CLSI broth microdilution MIC (Example 6)
Outline: as §1

Malassezia pachydermatis [3] = assay: Checkerboard MIC/FICI of NCL812 and EDTA (Example 2); details: for MIC: Malassezia pachydermatis, read-out: MIC, compound alone; for MIC, combination: EDTA + NCL812 combination; for FICI: NCL812 with EDTA
Description: There is no recommended CLSI standard for M. pachydermatis. In the literature there are a number of papers which have developed MIC methodology for Malassezia species isolated from both humans and animals (ie both lipophilic and non-lipophilic species). In all papers the methodology has been altered from the original CLSI protocols in order to overcome four main problem areas involved in testing this yeast. • 1) Finding a suitable growth medium for Malassezia, especially the lipophilic species. […] The method followed was originally developed by Eichenberg et al. (2003) (mSAB broth microdilution method). The mSAB method was devised to follow as closely as possible the CLSI guidelines whilst still allowing for the distinct biochemical and growth requirements of M. pachydermatis. […] Briefly, 150 μl of SDB+1% TW80 was added to each well of a 96-well microtiter plate, which was used as the checkerboard challenge plate. Next, a two-fold serial dilution of NCL 812 (robenidine) working solution was performed along the abscissa (column 3 to 12 only) (1/2 to 1/1024 dilution ratio). […] Experiments were performed in duplicate and repeated twice. […] The FICI values were interpreted as follows (Hamoud et al., 2015).

Candida albicans [4] = assay: as above; details: isolate Candida albicans
[5] = Example 6 isolates, summary in words

Molecule `Cc1ccc(/C=N/Nc2cc(N/N=C/c3ccc(C)cc3)nc(N)n2)cc1` [NCL195] has an MIC (Malassezia pachydermatis [1]; Malassezia isolate M1-017) of 1 µg/mL (≈ 2.78 µM), an MIC (Malassezia pachydermatis [1]; Malassezia isolate M-018) of 1 µg/mL (≈ 2.78 µM) and an MIC (Malassezia pachydermatis [1]; Malassezia isolate M-020) of 1 µg/mL (≈ 2.78 µM). The MIC (Malassezia pachydermatis [1]; Malassezia isolate M-036) was 1 µg/mL (≈ 2.78 µM), the MIC (Malassezia pachydermatis [1]; Malassezia isolate M-037) was 1 µg/mL (≈ 2.78 µM) and the MIC (Malassezia pachydermatis [1]; Malassezia isolate M-038) was 1 µg/mL (≈ 2.78 µM). The MIC (Malassezia pachydermatis [1]; Malassezia isolate M-040) was 0.5 µg/mL and 1 µg/mL, the MIC (Malassezia pachydermatis [1]; Malassezia isolate M-052) was 1 µg/mL (≈ 2.78 µM) and the MIC (Malassezia pachydermatis [1]; Malassezia isolate M-055) was 1 µg/mL (≈ 2.78 µM). The MIC (Malassezia pachydermatis [1]; Malassezia isolate M-060) was 1 µg/mL (≈ 2.78 µM), the MIC (Malassezia pachydermatis [1]; Malassezia isolate M-066) was 1 µg/mL (≈ 2.78 µM) and the MIC (Malassezia pachydermatis [1]; Malassezia isolate M-067) was 0.5 µg/mL and 1 µg/mL. For the same molecule, the MIC (Malassezia pachydermatis [1]; Malassezia isolate M-069) was 1 µg/mL (≈ 2.78 µM), the “activity against all 13 isolates of Malassezia pachydermatis” value (Malassezia pachydermatis [1]) was “highly active” and the MIC (Candida albicans [2]; C. albicans SA3) was 2 µg/mL (≈ 5.56 µM). The MIC (Candida albicans [2]; Candida albicans ATCC 90028) was 2 µg/mL (≈ 5.56 µM), the MIC (Cryptococcus neoformans; Cryptococcus neoformans SA1) was 2 µg/mL (≈ 5.56 µM) and the MIC (Cryptococcus neoformans; Cryptococcus neoformans SA2) was 2 µg/mL (≈ 5.56 µM). For the same molecule, the “activity against all isolates” value (Cryptococcus neoformans; [5]) was “active”, the “relative potency among tested compounds” value (Cryptococcus neoformans; [5]) was “most potent activity” and the MIC (Cryptococcus neoformans; human clinical isolate C. neoformans serotype A/D hybrid) was 2 µg/mL (≈ 5.56 µM). It also gave an MIC (Cryptococcus neoformans; human clinical isolate C. neoformans var grubii 16-90050434) of 2 µg/mL (≈ 5.56 µM), an MIC (Cryptococcus neoformans; human clinical isolate C. neoformans var grubii 17-90028233) of 2 µg/mL (≈ 5.56 µM) and an MIC (Cryptococcus neoformans; human clinical isolate C. neoformans var grubii 17-93996464) of 2 µg/mL (≈ 5.56 µM). For the same molecule, the MIC (Cryptococcus neoformans; human clinical isolate C. neoformans var grubii 17-93996964) was 2 µg/mL (≈ 5.56 µM).
For `N=C(N/N=C/c1ccc(Cl)cc1)N/N=C/c1ccc(Cl)cc1` [NCL812, robenidine, reference compound], the MIC (Malassezia pachydermatis [3]; isolate ML18) was 1 µg/mL, the MIC (Malassezia pachydermatis [3]; isolate ML19) was 2 µg/mL and the MIC (Malassezia pachydermatis [3]; isolate ML20) was 1 µg/mL. The MIC (Malassezia pachydermatis [3]; isolate ML21) was 2 µg/mL, the MIC (Malassezia pachydermatis [3]; isolate ML36) was 2 µg/mL and the MIC (Malassezia pachydermatis [3]; isolate ML41) was 2 µg/mL. The MIC (Malassezia pachydermatis [3]; isolate ML42) was 2 µg/mL, the MIC (Malassezia pachydermatis [3]; isolate ML43) was 4 µg/mL and the MIC (Malassezia pachydermatis [3]; isolate ML44) was 1 µg/mL. For the same molecule, the MIC (Malassezia pachydermatis [3]; isolate ML69) was 2 µg/mL, the “interaction of NCL812 and EDTA (FICI interpretation)” value (Malassezia pachydermatis [3]; each of the 11 isolates (10 Malassezia, 1 Candida albicans)) was “Synergy (FICI ≤ 0.5)” and the “MIC, combination” value (Malassezia pachydermatis [3]; isolate ML18) was 0.5 µg/mL. The FICI (Malassezia pachydermatis [3]; isolate ML18) was 1, the “MIC, combination” value (Malassezia pachydermatis [3]; isolate ML19) was 1 µg/mL and the FICI (Malassezia pachydermatis [3]; isolate ML19) was 1. For the same molecule, the “MIC, combination” value (Malassezia pachydermatis [3]; isolate ML20) was 0.5 µg/mL, the FICI (Malassezia pachydermatis [3]; isolate ML20) was 1 and the “MIC, combination” value (Malassezia pachydermatis [3]; isolate ML21) was 1 µg/mL. For the same molecule, the FICI (Malassezia pachydermatis [3]; isolate ML21) was 1, the “MIC, combination” value (Malassezia pachydermatis [3]; isolate ML36) was 1 µg/mL and the FICI (Malassezia pachydermatis [3]; isolate ML36) was 1. The “MIC, combination” value (Malassezia pachydermatis [3]; isolate ML41) was 0.5 µg/mL, the FICI (Malassezia pachydermatis [3]; isolate ML41) was 0.75 and the “MIC, combination” value (Malassezia pachydermatis [3]; isolate ML42) was 1 µg/mL. The FICI (Malassezia pachydermatis [3]; isolate ML42) was 1, the “MIC, combination” value (Malassezia pachydermatis [3]; isolate ML43) was 2 µg/mL and the FICI (Malassezia pachydermatis [3]; isolate ML43) was 1. The “MIC, combination” value (Malassezia pachydermatis [3]; isolate ML44) was 0.5 µg/mL, the FICI (Malassezia pachydermatis [3]; isolate ML44) was 1 and the “MIC, combination” value (Malassezia pachydermatis [3]; isolate ML69) was 1 µg/mL. For the same molecule, the FICI (Malassezia pachydermatis [3]; isolate ML69) was 1, the MIC (Malassezia pachydermatis [1]; Malassezia isolate M-036) was 2 µg/mL (≈ 5.98 µM) and the MIC (Malassezia pachydermatis [1]; Malassezia isolate M-066) was 2 µg/mL (≈ 5.98 µM). It also gave an MIC (Malassezia pachydermatis [1]; Malassezia pachydermatis, Malassezia isolate M1-017, read-out: MIC) of 2 µg/mL (≈ 5.98 µM), an MIC (Malassezia pachydermatis [1]; Malassezia pachydermatis, Malassezia isolate M-018, read-out: MIC) of 2 µg/mL (≈ 5.98 µM) and an MIC (Malassezia pachydermatis [1]; Malassezia pachydermatis, Malassezia isolate M-020, read-out: MIC) of 2 µg/mL (≈ 5.98 µM). For the same molecule, the MIC (Malassezia pachydermatis [1]; Malassezia pachydermatis, Malassezia isolate M-036, read-out: MIC) was 1 µg/mL (≈ 2.99 µM), the MIC (Malassezia pachydermatis [1]; Malassezia pachydermatis, Malassezia isolate M-037, read-out: MIC) was 2 µg/mL (≈ 5.98 µM) and the MIC (Malassezia pachydermatis [1]; Malassezia pachydermatis, Malassezia isolate M-038, read-out: MIC) was 1 µg/mL (≈ 2.99 µM). The MIC (Malassezia pachydermatis [1]; Malassezia pachydermatis, Malassezia isolate M-040, read-out: MIC) was 2 µg/mL (≈ 5.98 µM), the MIC (Malassezia pachydermatis [1]; Malassezia pachydermatis, Malassezia isolate M-052, read-out: MIC) was 1 µg/mL (≈ 2.99 µM) and the MIC (Malassezia pachydermatis [1]; Malassezia pachydermatis, Malassezia isolate M-055, read-out: MIC) was 1 µg/mL (≈ 2.99 µM). It also gave an MIC (Malassezia pachydermatis [1]; Malassezia pachydermatis, Malassezia isolate M-060, read-out: MIC) of 1 µg/mL (≈ 2.99 µM), an MIC (Malassezia pachydermatis [1]; Malassezia pachydermatis, Malassezia isolate M-066, read-out: MIC) of 1 µg/mL (≈ 2.99 µM) and an MIC (Malassezia pachydermatis [1]; Malassezia pachydermatis, Malassezia isolate M-067, read-out: MIC) of 1 µg/mL (≈ 2.99 µM). The MIC (Malassezia pachydermatis [1]; Malassezia pachydermatis, Malassezia isolate M-069, read-out: MIC) was 2 µg/mL (≈ 5.98 µM), the “activity against all 13 isolates of Malassezia pachydermatis” value (Malassezia pachydermatis [1]) was “highly active” and the MIC (Candida albicans [2]; ATCC90028, Candida albicans ATCC 90028, read-out: MIC) was 2 µg/mL (≈ 5.98 µM). It also gave an MIC (Candida albicans [2]; Candida albicans, C. albicans SA3, read-out: MIC) of 2 µg/mL (≈ 5.98 µM), an MIC (Cryptococcus neoformans; Cryptococcus neoformans, Cryptococcus neoformans SA1, read-out: MIC) of 2 µg/mL (≈ 5.98 µM) and an MIC (Cryptococcus neoformans; Cryptococcus neoformans, Cryptococcus neoformans SA2, read-out: MIC) of 2 µg/mL (≈ 5.98 µM). For the same molecule, the MIC (Cryptococcus neoformans; Cryptococcus neoformans, human clinical isolate C. neoformans serotype A/D hybrid, read-out: MIC) was 16 µg/mL (≈ 47.9 µM), the MIC (Cryptococcus neoformans; Cryptococcus neoformans, human clinical isolate C. neoformans var grubii 16-90050434, read-out: MIC) was 32 µg/mL (≈ 95.7 µM) and the MIC (Cryptococcus neoformans; Cryptococcus neoformans, human clinical isolate C. neoformans var grubii 17-90028233, read-out: MIC) was 32 µg/mL (≈ 95.7 µM). For the same molecule, the MIC (Cryptococcus neoformans; Cryptococcus neoformans, human clinical isolate C. neoformans var grubii 17-93996464, read-out: MIC) was 16 µg/mL (≈ 47.9 µM), the “activity against all isolates” value (Cryptococcus neoformans; [5]) was “active” and the “activity against one or more isolates of Candida albicans and Cryptococcus neoformans” value (Cryptococcus neoformans; summary in words) was “highly active”. The “MIC, combination” value (Candida albicans [4]; EDTA + NCL812 combination) was 1 µg/mL, the FICI (Candida albicans [4]; NCL812 with EDTA) was 0.75 and the MIC (Candida albicans [4]; read-out: MIC, compound alone) was 4 µg/mL.

— patent US20230310388A1, “Methods and Compositions for Treating Fungal Infections” (Neoculi Pty Ltd, priority 2020, published 2023)
